Results from ChEMBL document CHEMBL1926669, “Quantitative structure-activity relationships of 1,3,4-thiadiazol-2(3H)-ones and 1,3,4-oxadiazol-2(3H)-ones as human protoporphyrinogen oxidase inhibitors” (Bioorg Med Chem, 2012).

Target: T1, Protoporphyrinogen oxidase (Homo sapiens, UniProt P50336)
T1 sequence (P50336 whole entry): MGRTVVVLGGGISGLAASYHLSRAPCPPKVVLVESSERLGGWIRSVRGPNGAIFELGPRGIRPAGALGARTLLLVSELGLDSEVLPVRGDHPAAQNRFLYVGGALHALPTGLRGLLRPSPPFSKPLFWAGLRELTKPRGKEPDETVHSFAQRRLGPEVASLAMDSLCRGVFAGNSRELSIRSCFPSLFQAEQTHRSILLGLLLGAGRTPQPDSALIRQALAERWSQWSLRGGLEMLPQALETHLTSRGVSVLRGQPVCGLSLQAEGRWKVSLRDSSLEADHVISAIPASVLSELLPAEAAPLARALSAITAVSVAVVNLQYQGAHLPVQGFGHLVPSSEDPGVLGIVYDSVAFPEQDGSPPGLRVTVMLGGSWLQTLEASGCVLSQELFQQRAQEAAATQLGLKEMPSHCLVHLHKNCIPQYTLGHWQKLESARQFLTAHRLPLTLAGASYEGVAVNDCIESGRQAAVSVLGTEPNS
Test: Inhibition of human PPO expressed in Escherichia coli BL21(DE3) by continuous fluorometric method

Work on `O=C(O)c1cc(Oc2ccc(C(F)(F)F)cc2Cl)ccc1[N+](=O)[O-]` [ACIFLUORFEN] yielded a Ki of 1.71 µM.

Target: T1, Protoporphyrinogen oxidase
Test: Inhibition of human PPO by capillary electrophoresis method

Compared with `CCOC(=O)C(C)(C)Sc1nc2cc(-n3nc(C(C)(C)C)sc3=O)c(F)cc2s1`, `CCOC(=O)C(C)(C)Sc1nc2cc(-n3nc(C(C)(C)C)sc3=O)c(Cl)cc2s1` is 9.9-fold higher in Ki: 3.46 µM for the first, 34.4 µM for the second. The first binds more tightly here.

First: CC(C)OC(=O)CSc1nc2cc(-n3nc(C(C)(C)C)sc3=O)c(F)cc2s1
Second: COC(=O)CSc1nc2cc(-n3nc(C(C)(C)C)sc3=O)c(F)cc2s1
The Ki of the first is 2.4-fold lower: 1.26 µM for the first, 3.05 µM for the second. The first binds more tightly here.

Going from `CCOC(=O)Sc1nc2cc(-n3nc(C(C)(C)C)sc3=O)c(Cl)cc2s1` to `CCOC(=O)Sc1nc2cc(-n3nc(C(C)(C)C)sc3=O)c(F)cc2s1`, the Ki falls from 0.2 µM to 0.04 µM (5-fold).

Going from `CCOC(=O)CCSc1nc2cc(-n3nc(C(C)(C)C)sc3=O)c(Br)cc2s1` to `CCOC(=O)CCCSc1nc2cc(-n3nc(C(C)(C)C)sc3=O)c(Br)cc2s1`, the Ki rises from 27.5 µM to 245 µM (8.9-fold).

Compared with `CCOC(=O)C(C)(C)Sc1nc2cc(-n3nc(C(C)(C)C)sc3=O)c(Br)cc2s1`, `CCOC(=O)C(C)(C)Sc1nc2cc(-n3nc(C(C)(C)C)oc3=O)c(Br)cc2s1` is 28-fold lower in Ki: 43.5 µM for the first, 1.58 µM for the second.

Going from `CCOC(=O)C(C)Sc1nc2cc(-n3nc(C(C)(C)C)sc3=O)c(F)cc2s1` (stereo not given) to `CCOC(=O)C(C)Sc1nc2cc(-n3nc(C(C)(C)C)sc3=O)c(Br)cc2s1` (stereo not given), the Ki rises from 5.89 µM to 173 µM (29-fold).

`C#CCSc1nc2cc(-n3nc(C(C)(C)C)sc3=O)c(Br)cc2s1` and `C#CCSc1nc2cc(-n3nc(C(C)(C)C)sc3=O)c(Cl)cc2s1` are within 1.5-fold of each other in Ki: 20.7 µM for the first, 21.4 µM for the second.

Compared with `C#CCSc1nc2cc(-n3nc(C(C)(C)C)oc3=O)c(F)cc2s1`, `CCOC(=O)Sc1nc2cc(-n3nc(C(C)(C)C)oc3=O)c(F)cc2s1` is 2.7-fold lower in Ki: 1.92 µM for the first, 0.72 µM for the second. The second binds more tightly here.

First: CC(C)Oc1cc(-n2nc(C(C)(C)C)oc2=O)c(Cl)cc1Cl [OXADIAZON]
Second: CCOC(=O)CSc1nc2cc(-n3nc(C(C)(C)C)oc3=O)c(Cl)cc2s1
The Ki of the first is 2.7-fold higher: 2.93 µM for the first, 1.07 µM for the second.

Compared with `CCOC(=O)CCCSc1nc2cc(-n3nc(C(C)(C)C)oc3=O)c(F)cc2s1`, `CCOC(=O)CCCSc1nc2cc(-n3nc(C(C)(C)C)sc3=O)c(Cl)cc2s1` is 49-fold higher in Ki: 0.36 µM for the first, 17.7 µM for the second. The first binds more tightly here.

Going from `CCOC(=O)CSc1nc2cc(-n3nc(C(C)(C)C)sc3=O)c(Br)cc2s1` to `CCOC(=O)CSc1nc2cc(-n3nc(C(C)(C)C)sc3=O)c(F)cc2s1`, the Ki falls from 15.6 µM to 0.34 µM (46-fold). The second binds more tightly here.

`CCOC(=O)C(C)Sc1nc2cc(-n3nc(C(C)(C)C)sc3=O)c(Cl)cc2s1` (stereo not given) showed a Ki of 12 µM.

Target: T2, Protoporphyrinogen oxidase, mitochondrial (Nicotiana tabacum, UniProt O24164)
T2 sequence (O24164 whole entry): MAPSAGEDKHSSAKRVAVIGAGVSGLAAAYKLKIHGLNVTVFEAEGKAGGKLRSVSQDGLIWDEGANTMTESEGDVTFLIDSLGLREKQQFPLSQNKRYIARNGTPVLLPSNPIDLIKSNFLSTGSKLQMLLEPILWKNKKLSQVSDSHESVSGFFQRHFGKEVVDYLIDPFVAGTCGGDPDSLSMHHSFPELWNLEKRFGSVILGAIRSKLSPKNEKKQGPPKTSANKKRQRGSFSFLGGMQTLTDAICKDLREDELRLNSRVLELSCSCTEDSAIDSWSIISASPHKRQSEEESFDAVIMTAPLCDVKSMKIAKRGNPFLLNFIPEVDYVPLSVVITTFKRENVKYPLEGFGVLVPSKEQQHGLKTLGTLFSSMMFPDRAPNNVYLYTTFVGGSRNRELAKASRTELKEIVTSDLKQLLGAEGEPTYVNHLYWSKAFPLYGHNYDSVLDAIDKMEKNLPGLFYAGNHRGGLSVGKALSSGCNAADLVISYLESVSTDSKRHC
Test: Inhibition of Nicotiana tobacum PPO

Work on `O=C(O)c1cc(Oc2ccc(C(F)(F)F)cc2Cl)ccc1[N+](=O)[O-]` [ACIFLUORFEN] yielded a Ki of 0.07 µM.
